Reference: the NIST ThermoML archive (doi:10.1016/j.jct.2009.05.001)

Experiment: xn = mol fraction of the nth substance listed
Conditions: 101 kPa, Liquid; for speed of sound: Sing-around technique in a fixed-path interferometer; for mass density: Vibrating tube method

ClC(Cl)C(Cl)Cl [1,1,2,2-tetrachloroethane] + CCCCCCO
Conditions	mass density, 308.15 K [kg/m3]	mass density, 313.15 K [kg/m3]	speed of sound, 308.15 K [m/s]	speed of sound, 313.15 K [m/s]
x1 = 0.0688	853.014	849.095	1241.8	1225.3
x1 = 0.123	889.246	885.104	1220.7	1204.1
x1 = 0.2457	973.918	969.244	1176.4	1160
x1 = 0.3618	1057.58	1052.37	1138.6	1122.3
x1 = 0.4502	1123.79	1118.17	1112.2	1096
x1 = 0.5583	1208.04	1201.9	1082.7	1066.7
x1 = 0.6518	1283.92	1277.31	1060	1044.2
x1 = 0.7068	1329.98	1323.07	1047.9	1032.3
x1 = 0.7419	1360.06	1352.96	1040.7	1025.1
x1 = 0.7797	1392.95	1385.63	1033.5	1018
x1 = 0.8315	1438.91	1431.3	1024.4	1009.1
x1 = 0.8718	1475.7	1467.85	1018	1002.8
x1 = 0.9179	1518.39	1510.31	1012.1	997.14
x1 = 0.9504	1549.36	1541.12	1009.1	994.34
x1 = 1	1597.75	1589.36	1008.9	994.15

BrCCBr [1,2-dibromoethane] + CCCCCCO
Conditions	mass density, 308.15 K [kg/m3]	mass density, 313.15 K [kg/m3]	speed of sound, 308.15 K [m/s]	speed of sound, 313.15 K [m/s]
x1 = 0.0402	845.2	841.335	1246.8	1230.7
x1 = 0.0682	871.58	867.573	1231.5	1215.3
x1 = 0.1276	929.152	924.828	1200.8	1184.8
x1 = 0.2056	1008.3	1003.54	1163.8	1148.2
x1 = 0.2686	1075.32	1070.19	1136.5	1121.2
x1 = 0.3892	1211.59	1205.72	1090.4	1075.6
x1 = 0.4277	1258.28	1252.15	1077	1062.5
x1 = 0.5444	1406.53	1399.6	1041.2	1027.1
x1 = 0.6405	1539.27	1531.62	1016.5	1003
x1 = 0.7326	1676.75	1668.38	996.88	983.86
x1 = 0.8519	1871.88	1862.55	978.58	966.15
x1 = 0.9273	2006.87	1996.95	971.93	959.29
x1 = 0.9587	2066.14	2055.98	970.13	957.92
x1 = 0.9782	2104.45	2094.14	969.05	956.68
x1 = 1	2148.2	2137.69	968.69	956.08

ClCCCl [1,2-dichloroethane] + CCCCCCO
Conditions	mass density, 308.15 K [kg/m3]	mass density, 313.15 K [kg/m3]	speed of sound, 308.15 K [m/s]	speed of sound, 313.15 K [m/s]
x1 = 0.037	817.675	813.926	1262.4	1246.1
x1 = 0.0769	828.456	824.595	1254.6	1238.5
x1 = 0.1499	848.617	844.565	1240.1	1223.2
x1 = 0.2147	867.202	863.005	1226.8	1210.1
x1 = 0.2935	891.704	887.346	1212.5	1195.8
x1 = 0.3952	926.131	921.594	1195.1	1177.8
x1 = 0.4532	947.081	942.428	1185.4	1167.5
x1 = 0.5596	988.685	983.815	1169.3	1151.5
x1 = 0.6113	1010.54	1005.54	1162	1144.6
x1 = 0.6971	1049.83	1044.5	1153.5	1135.8
x1 = 0.7791	1091.94	1086.13	1148.8	1131.2
x1 = 0.8563	1135.2	1128.8	1148	1129
x1 = 0.9335	1184.46	1177.4	1151.1	1128.9
x1 = 0.979	1215.34	1207.97	1152.8	1132.9
x1 = 1	1230.88	1223.41	1155.3	1136.2

CCCCCCO [hexan-1-ol] + BrCCBr
x2 = 0
Conditions	mass density [kg/m3]	speed of sound [m/s]
308.15 K	808.056	1270.2
313.15 K	804.397	1253.6

CCCCCCO [hexan-1-ol] + ClC(Cl)C(Cl)Cl
x2 = 0
Conditions	mass density [kg/m3]	speed of sound [m/s]
308.15 K	808.056	1270.2
313.15 K	804.397	1253.6

CCCCCCO [hexan-1-ol] + ClCCCl
x2 = 0
Conditions	mass density [kg/m3]	speed of sound [m/s]
308.15 K	808.056	1270.2
313.15 K	804.397	1253.6
